Data as given in patent US8013137B2, “Modified enteropeptidase protein” (National University Corporation Hokkaido University, priority 2006, dated 2011).
Like-named read-outs stand apart in the source and are kept apart here. Non-standard residues stand in square brackets, D forms with d. Residues, ends and D or L forms follow the SMILES beside them. *: point of attachment. Sta = CC(C)C[C@H](N)[C@@H](O)CC(=O)O; Isovaleryl = CC(C)CC(=O)*

Experiments:
[1] = target: medaka EP-2 enteropeptidase serine protease domain, wild type (EP-2, SEQ ID NO: 72) (Oryzias latipes, UniProt A4UWM6); test: Inhibitor assay, EP-2 protease activity on GD4K-βNA; format: biochemical, Japanese Medaka (Oryzias latipes); details: pH 7.4
[2] = target: T1, medaka EP-1 enteropeptidase serine protease domain, wild type, SEQ ID NO: 2 (Oryzias latipes, UniProt A4UWM5); test: Inhibitor assay, EP-1 protease activity on GD4K-βNA; format: biochemical, Japanese Medaka (Oryzias latipes); details: pH 7.4
T1 sequence (A4UWM5 795-1036): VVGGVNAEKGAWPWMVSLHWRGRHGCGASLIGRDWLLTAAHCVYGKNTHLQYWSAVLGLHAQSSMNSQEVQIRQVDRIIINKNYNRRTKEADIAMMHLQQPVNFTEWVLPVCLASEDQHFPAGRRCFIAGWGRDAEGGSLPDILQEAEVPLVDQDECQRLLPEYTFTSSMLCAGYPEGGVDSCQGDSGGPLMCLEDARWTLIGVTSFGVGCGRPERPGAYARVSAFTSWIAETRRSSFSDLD

[3] = tested on: medaka EP-2 protease; test: Inhibitor assay, enzyme activity measured using GD4K-βNA as a substrate; format: biochemical, medaka (Oryzias latipes)
[4] = tested on: medaka EP-1 protease; test: as above; format: biochemical, medaka (Oryzias latipes)
[5] = 0.2 mM inhibitor, GD4K-βNA substrate, 10 min preincubation
[6] = inhibitor 1.0 mM, GD4K-βNA substrate, 10 min preincubation
[7] = inhibitor 0.1 mM, GD4K-βNA substrate, 10 min preincubation
[8] = inhibitor 0.01 mg/ml, GD4K-βNA substrate, 10 min preincubation

Chain of medaka EP-2 enteropeptidase serine protease domain, wild type (EP-2, SEQ ID NO: 72) (A4UWM6 802-1043): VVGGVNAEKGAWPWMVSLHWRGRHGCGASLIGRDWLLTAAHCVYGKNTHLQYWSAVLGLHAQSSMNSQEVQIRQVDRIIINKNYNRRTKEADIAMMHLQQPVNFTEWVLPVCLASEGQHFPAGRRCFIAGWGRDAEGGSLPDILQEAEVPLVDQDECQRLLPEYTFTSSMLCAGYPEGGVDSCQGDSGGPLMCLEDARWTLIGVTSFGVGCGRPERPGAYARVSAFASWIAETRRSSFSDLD

**Q.** With `CC(C)C[C@H](NC(=O)[C@H]1O[C@@H]1C(=O)O)C(=O)NCCCCN=C(N)N` [E-64] as the compound, how does the inhibition at 200 µM [1, 5] read?
**A.** 0%

**Q.** And the inhibition at 200 µM [2, 5]?
**A.** 0%

**Q.** For `N=C(N)c1ccccc1` [Benzamidine], which “Inhibition (%) EP-2” value [3, 6] is on record?
**A.** 78%

**Q.** What about the “Inhibition (%) EP-1” value [4, 6] of the same compound?
**A.** 79%

**Q.** `CC(=O)N[C@@H](CC(C)C)C(=O)N[C@@H](CC(C)C)C(=O)N[C@H](C=O)CCCNC(=N)N` [Leupeptin] was tested. Which “Inhibition (%) EP-2” value [3] did it give?
**A.** 47%

**Q.** What about the “Inhibition (%) EP-1” value [4] of the same compound?
**A.** 43%

**Q.** Which “Inhibition (%) EP-2” value [3, 7] does the source give for `CC(C)CC(=O)N[C@H](C(=O)N[C@H](C(=O)N[C@@H](CC(C)C)[C@@H](O)CC(=O)N[C@@H](C)C(=O)N[C@@H](CC(C)C)[C@@H](O)CC(=O)O)C(C)C)C(C)C` [Pepstatin] (Isovaleryl-VV[Sta]A[Sta]-OH) here?
**A.** 3%

**Q.** And the “Inhibition (%) EP-1” value [4, 7]?
**A.** 0%

**Q.** What does the source list for Aprotinin?
**A.** Inhibition (%) EP-2 [3, 8]: 5%; Inhibition (%) EP-1 [4, 8]: 0%

**Q.** `CC(C)C[C@H](NC(=O)[C@@H](NC(=O)N[C@@H](Cc1ccccc1)C(=O)O)[C@@H]1CCN=C(N)N1)C(=O)N[C@H](C=O)Cc1ccccc1` [Chymostatin] was tested. Which “Inhibition (%) EP-2” value [3] did it give?
**A.** 0%

**Q.** And the “Inhibition (%) EP-1” value [4]?
**A.** 0%

**Q.** Which inhibition at 5000 µM [1] does the source give for `O=C(O)CN(CCN(CC(=O)O)CC(=O)O)CC(=O)O` [EDTA] here?
**A.** 10%

**Q.** And the inhibition at 5000 µM [2]?
**A.** 5%
